Source: US20060223763A1, “C-glycoside compounds for stimulating the synthesis of glycosaminoglycans” (L'OREAL S.A., priority 2000, published 2006)
Values joined by “and” are separate entries in the source; they are usually repeats but may differ in a detail not shown here. Equal entries are not always repeated.

Tested on: normal human dermal fibroblast cultures
Assay: incorporation of radioactive glucosamine into the matrix neosynthesized by fibroblast cultures (GAG/hyaluronic acid synthesis)
Assay type: cell-based
Description: The study was performed by measuring the incorporation of radioactive glucosamine into the matrix neosynthesized by normal human dermal fibroblast cultures. The incorporation of radioactive glucosamine indicated a specific neosynthesis of glycosaminoglycans via incorporation of the acetylated form of this glucosamine.
The fibroblast cultures were prepared according to the standard methods of cell culturing, i.e., in MEM/M199 medium sold by Gibco, in the presence of sodium bicarbonate (1.87 mg/ml), L-glutamine (2 mM), penicillin (50 IU/ml) and 10% foetal calf serum (Gibco).
The test was performed on a cell culture at 80% confluence, on 96-well plates. The C-glycoside derivative at concentrations of 0.1 to 30 mM was placed in contact with the cells for 48 hours. Labeling with radioactive glucosamine (D-[6-H^3]-glucosamine, Amersham TRK398 (814 Gbq/mmol, 22 Ci/mmol)) was performed for 24 hours.
The level of radioactive glucosamine incorporated was measured at the end of the test by adsorption of the anionic molecules onto Q-sepharose beads followed by desorption of the sparingly and moderately anionic molecules with 6M urea plus 0.2M NaCl. Once washed, the radioactivity incorporated into the highly cationic molecules remaining on the support was counted.
The results were evaluated relative to a control consisting of cells that have not been treated with the C-glycoside derivative of formula (I).
A positive control (TGFβ at 10 ng/ml) known to stimulate GAG synthesis was introduced into the test as positive reference.

[1] = 0.1 mM, 48 hours contact, labeling 24 hours
[2] = 0.5 mM, 48 hours contact, labeling 24 hours
[3] = 0.3 mM, 48 hours contact, labeling 24 hours
[4] = 1 mM, 48 hours contact, labeling 24 hours
[5] = concentrations of 0.3, 1 and 3 mM
[6] = 3 mM, 48 hours contact, labeling 24 hours
[7] = 0.4 mM, 48 hours contact, labeling 24 hours
[8] = 2 mM, 48 hours contact, labeling 24 hours
[9] = 10 mM, 48 hours contact, labeling 24 hours
[10] = TGFβ at 10 ng/ml, positive control, two values given

Molecule	% (relative to untreated control) [1]	VALUE (radioactive glucosamine incorporated) [1]	% (relative to untreated control) [3]	VALUE (radioactive glucosamine incorporated) [3]	% (relative to untreated control) [4]	VALUE (radioactive glucosamine incorporated) [4]	effect on incorporation of radioactive glucosamine [5]	other results
O=C[C@H](O)[C@@H](O)[C@H](O)CO [D-Xylose, reference compound]	102%	6586 cpm	–	–	–	–	–	% (relative to untreated control) [2]: 86%; VALUE (radioactive glucosamine incorporated) [2]: 4063 cpm
CC(C[C@@H]1OC[C@@H](O)[C@H](O)[C@H]1O)NCCCO (stereo partly drawn) [1-[2-(3-Hydroxypropylamio)Propyl]-C-β-D-Xylopyranose]	110%	11656 cpm	109%	11585 cpm	140%	14832 cpm	stimulate the incorporation of radioactive glucosamine	–
CC(O)C[C@@H]1OC[C@@H](O)[C@H](O)[C@H]1O (stereo partly drawn) [C-β-D-Xylopyranoside-2-hydroxypropane, C-β-D-xylopyranoside-2-hydroxypropane]	–	–	139%	11634 cpm	169%	14209 cpm	–	% (relative to untreated control) [6]: 218%; VALUE (radioactive glucosamine incorporated) [6]: 18271 cpm; effect on incorporation of radioactive glucosamine (concentrations of 0.1, 0.3 and 1 mM): stimulates the incorporation of radioactive glucosamine
CC(=O)C[C@@H]1OC[C@@H](O)[C@H](O)[C@H]1O [C-β-D-Xylopyranoside-n-propan-2-one, C-β-D-xylopyranoside-n-propan-2-one]	–	–	–	–	–	–	–	% (relative to untreated control) [7]: 141%; VALUE (radioactive glucosamine incorporated) [7]: 8564 cpm; % (relative to untreated control) [8]: 131%; VALUE (radioactive glucosamine incorporated) [8]: 11014 cpm; % (relative to untreated control) [9]: 161%; VALUE (radioactive glucosamine incorporated) [9]: 12507 cpm and 9811 cpm; effect on incorporation of radioactive glucosamine (concentrations of 0.4, 2 and 10 mM): stimulates the incorporation of radioactive glucosamine
O=C(C[C@@H]1OC[C@@H](O)[C@H](O)[C@H]1O)c1ccccc1 [1-Phenyl-2-(C-β-D-Xylopyranoside)Ethan-1-One]	120%	10113 cpm	102%	8545 cpm	95%	7941 cpm	stimulate the incorporation of radioactive glucosamine	–
TGFβ: positive control (TGFβ at 10 ng/ml) known to stimulate GAG synthesis	–	–	–	–	–	–	–	% (relative to untreated control) [10]: 348% and 454%; VALUE (radioactive glucosamine incorporated) [10]: 27124 cpm and 34865 cpm
